From patent US6489470B1, “Process for the preparation of cefpodoxime proxetil diastereoisomers” (Biochemie Gesellschaft m.b.H., priority 1998, dated 2002)

Assay: bioequivalence with a commercial form for oral administration
Type: in vivo
Conditions: mixture of diastereoisomers, diastereoisomeric ratio (B/A+B) of 0.5 to 0.6

**Q.** With `COCC1=C(C(=O)OC(C)OC(=O)OC(C)C)N2C(=O)[C@@H](NC(=O)/C(=N\OC)c3csc(N)n3)C2SC1` (mixture of isomers) [cefpodoxim proxetil, 7-[2-(2-aminothiazol-4-yl)-2-(Z)-(methoxyimino)acetamido]-3-methoxymethyl-3-cephem-4-carboxylic acid-1-(isopropoxycarbonyloxy)ethyl ester] as the compound, how does the “bioequivalence with a commercial form” value read?
**A.** bioequivalent
